In patent US20210278408A1, “METHODS OF TREATMENT OF CANCER WITH SUBSTITUTED PYRROLE AND PYRAZOLE COMPOUNDS AND DIAGNOSIS OF CANCERS SUSCEPTIBLE TO TREATMENT WITH SUBSTITUTED PYRROLE AND PYRAZOLE COMPOUNDS” (Bantam Pharmaceutical, LLC, priority 2018, published 2021) one finds IC50 data, which are given here for one compound.

Structures are written as SMILES.

Usually IC50 stands for the concentration that gives 50% inhibition. The low end stands for higher potency, the high end for lower potency.

Type in all cases: cell-based, human
One test relates to NCI-H2122. The test is described as follows: Anti-proliferative activity, CellTiter-Glo, 72 hours: NCI-H2122. The following applies: NCI-H2122 (non-small cell lung cancer), Cell-Titre-Glo. The procedure:
(§1) Anti-proliferative activity of BTM compounds. The anti-proliferative activities of Compound A197 and Compound B19 were compared to 4EGI-1 (a known cancer cell growth inhibitor) in a panel of 99 tumor lines. Methods: A panel of 96 tumor and 3 normal cell lines were tested for sensitivity to the test compound. The cell lines were cultured in standard media and pipetted into 96-well plates at the required plating densities. The cells were acclimated for 24 hours prior to compound testing. Compound was prepared as a stock of 20 mM in DMSO. To prepare dose response curves compound was serially diluted in DMSO and dispensed into the plate wells using a Tecan D300e digital dispenser. The final DMSO concentration was 0.15%. After 72 hours of incubation cell number was determined using the CellTiter-Glo® protocol according to the manufacturers instructions (Promega). In this assay, ATP is measured as a surrogate of cell number. The activity of the compound is determined by comparing untreated cells with treated cells and calculating the % of signal retained. Compound activity is measured as an EC50 of maximum level of efficacy and the two are used to compute an activity area. The table below provides a comparison of activity in a data sample.

In another test the test system is MIA PaCa-2. The test is described as follows: Anti-proliferative activity, CellTiter-Glo, 72 hours: MIA PaCa-2. The settings on record: MIA PaCa-2 (pancreactic cancer (carcinoma)), Cell-Titre-Glo. As for the experimental part: as §1
(ATP-based viability assays read luminescence as a measure of living cells.)

The next test concerns HT-1080. Nature of the test: Anti-proliferative activity, CellTiter-Glo, 72 hours: HT-1080. The settings on record: HT-1080 (fibrosarcoma), Cell-Titre-Glo. As for the experimental part: as §1
The subject of the next test is LoVo. The test is described as follows: Anti-proliferative activity, CellTiter-Glo, 72 hours: LoVo. The settings on record: LoVo (colorectal cancer), Cell-Titre-Glo. The procedure:
as §1

The next test has as its system HCT-116. Nature of the test: Anti-proliferative activity, CellTiter-Glo, 72 hours: HCT-116. The settings on record: HCT-116 (colorectal cancer), Cell-Titre-Glo. As for the experimental part: as §1
Another test concerns MDA-MB-157. The test is described as follows: Anti-proliferative activity, CellTiter-Glo, 72 hours: MDA-MB-157. The following applies: MDA-MB-157 (breast cancer); 72 hours; Cell-Titre-Glo. As for the experimental part:
as §1

For the next test, the system named is SK-MEL-28. The test is described as follows: Anti-proliferative activity, CellTiter-Glo, 72 hours: SK-MEL-28. The following applies: SK-MEL-28 (melanoma), Cell-Titre-Glo. The procedure:
as §1

The subject of the next test is HK-2. The test is described as follows: Anti-proliferative activity, CellTiter-Glo, 72 hours: HK-2. The following applies: HK-2 (kidney epilithial), Cell-Titre-Glo. As for the experimental part:
as §1

The test system of a further test is Jurkat. The test is described as follows: Anti-proliferative activity, CellTiter-Glo, 72 hours: Jurkat. The settings on record: Jurkat (T cell leukemia), Cell-Titre-Glo. As for the experimental part: as §1
The test system of the next test is SU-DHL-6. Nature of the test: Anti-proliferative activity, CellTiter-Glo, 72 hours: SU-DHL-6. The following applies: SU-DHL-6 (B-cell lymphoma), Cell-Titre-Glo. As for the experimental part: as §1
Another test concerns A549. The test is described as follows: Anti-proliferative activity, CellTiter-Glo, 72 hours: A549. The following applies: A549 (non-small cell lung cancer), Cell-Titre-Glo. The procedure:
as §1

In a further test the test system is HUVEC. Nature of the test: Anti-proliferative activity, CellTiter-Glo, 72 hours: HUVEC. The following applies: HUVEC (primary endolithial cells), Cell-Titre-Glo. As for the experimental part:
as §1

Another test concerns MDA-MB-231. The test is described as follows: Anti-proliferative activity, CellTiter-Glo, 72 hours: MDA-MB-231. The settings on record: MDA-MB-231 (breast cancer), Cell-Titre-Glo. As for the experimental part:
as §1

The subject of another test is SU-DHL-10. Nature of the test: Anti-proliferative activity, CellTiter-Glo, 72 hours: SU-DHL-10. The following applies: SU-DHL-10 (B-cell lymphoma), Cell-Titre-Glo. As for the experimental part: as §1
The subject of a further test is SU-DHL-4. The test is described as follows: Anti-proliferative activity, CellTiter-Glo, 72 hours: SU-DHL-4. The settings on record: SU-DHL-4 (B-cell lymphoma), Cell-Titre-Glo. As for the experimental part:
as §1

For a further test, the system named is NCI-H460. Nature of the test: Anti-proliferative activity, CellTiter-Glo, 72 hours: NCI-H460. The settings on record: NCI-H460 (non-small cell lung cancer), Cell-Titre-Glo. The procedure: as §1

For the compound `O=C(O)C(Cc1ccccc1[N+](=O)[O-])=NNc1nc(-c2ccc(Cl)c(Cl)c2)cs1` (mixture of isomers) [Compound 4EGI-1, 4EGI-1, reference compound], the IC50 in the test on NCI-H2122 stood at 13.8 µM; in the test with MIA PaCa-2, 14.3 µM; with HT-1080, 4.66 µM; with LoVo, 14.1 µM; in the test on HCT-116, 10.5 µM; with MDA-MB-157 it was 11.8 µM. The IC50 amounted to 33.4 µM with SK-MEL-28; 46 µM in the test with HK-2; 13.2 µM in the test with Jurkat; 7.26 µM in the test with SU-DHL-6; 21.8 µM with A549; 7.99 µM in the test on HUVEC. Moreover, the IC50 in the test with MDA-MB-231 is 5.77 µM; in the test on SU-DHL-10, 19.5 µM; in the test with SU-DHL-4, 8.42 µM; in the test with NCI-H460 it was 9.46 µM.
